Source: patent publication US10976310B2, “Ligand identification by co-fractionation” (MAX-PLANCK-GESELLSCHAFT ZUR FÖRDERUNG DER WISSENSCHAFTEN …, priority 2016, dated 2021)
Several values for one entry are separate records, joined by “and”; a condition that tells them apart may be missing. Identical values can stand only once.

Experiments:
Rbp47b = target: T1, Rbp47b (Arabidopsis thaliana, UniProt Q0WW84); assay: MST measurement of ligand binding to recombinant Rbp47b; details: His6-Rbp47b from E. coli, n=3
T1 sequence (Q0WW84 1-435): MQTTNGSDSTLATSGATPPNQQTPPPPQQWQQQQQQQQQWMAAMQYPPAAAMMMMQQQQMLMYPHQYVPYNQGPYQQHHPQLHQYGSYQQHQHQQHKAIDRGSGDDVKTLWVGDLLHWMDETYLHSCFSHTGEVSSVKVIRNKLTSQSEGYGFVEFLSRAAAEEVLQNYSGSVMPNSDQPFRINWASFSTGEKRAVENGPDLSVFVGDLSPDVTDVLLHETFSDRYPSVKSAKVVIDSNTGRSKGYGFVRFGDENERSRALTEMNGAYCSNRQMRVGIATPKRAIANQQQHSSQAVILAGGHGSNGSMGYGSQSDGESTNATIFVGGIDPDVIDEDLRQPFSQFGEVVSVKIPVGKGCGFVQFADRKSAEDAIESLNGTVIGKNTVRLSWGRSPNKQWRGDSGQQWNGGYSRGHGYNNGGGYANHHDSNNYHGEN
Description: We therefore attempted to determine the in vitro binding affinity biophysically using micro-scale thermophoresis (MST) (Jerabek-Willemsen et al. (2011) Molecular interaction studies using microscale thermophoresis. Assay Drug Dev Technol 9: 342-353). MST exploits the effect of size, charge, and hydration shell on the movement of molecules in a temperature gradient. Complex formation resulting in alteration of at least one of the three parameters leads to differential movement, from which the binding affinity can be determined. For the purpose of the MST experiment, Rbp47b was expressed in and purified from E. coli. […] The measured Kd value also corresponds to the ˜20 μM concentration of 2′,3′-cAMP measured in the native Arabidopsis lysate (FIG. 11B).
TIA1 protein was purchased from Origene (Herford, Germany). Rbp47b was cloned as a C-terminal GFP fusion (to increase protein solubility) into the E. coli expression vector pDEST14 containing His6-tag at the N-terminal of the Gateway (Karlsruhe, Germany) cassette. […]
Next day, cells were disrupted with an Avestin (Mannheim, Germany) EmulsiFlex C3 homogenizer and the protein was purified using imidazole-gradient purification in Ni-NTA agarose (Qiagen 34080, Hilden, Germany). […] Protein purity was assessed by SDS-PAGE and protein identification was done using western blot using anti-His6 antibodies. […]

TIA1 = target: T2, TIA1 (Homo sapiens, UniProt P31483); assay: MST measurement of ligand binding to recombinant TIA1; details: recombinant TIA1, n=3
T2 construct: purchased Origene (Herford, Germany)
T2 sequence (P31483 1-386): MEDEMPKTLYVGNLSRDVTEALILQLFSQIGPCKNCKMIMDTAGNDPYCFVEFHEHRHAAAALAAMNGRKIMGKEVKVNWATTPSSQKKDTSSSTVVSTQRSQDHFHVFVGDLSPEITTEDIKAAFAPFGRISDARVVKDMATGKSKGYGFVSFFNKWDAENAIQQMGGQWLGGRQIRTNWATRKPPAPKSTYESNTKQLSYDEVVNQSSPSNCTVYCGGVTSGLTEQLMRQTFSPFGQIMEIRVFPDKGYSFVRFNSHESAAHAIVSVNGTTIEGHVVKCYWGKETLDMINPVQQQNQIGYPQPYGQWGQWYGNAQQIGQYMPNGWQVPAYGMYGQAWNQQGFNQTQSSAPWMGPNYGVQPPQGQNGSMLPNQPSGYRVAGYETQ
Description: (§1) Expecting such a basic role of 2′,3′-cAMP to be conserved, we performed similar analysis with TIA1, the human functional homolog of Rbp47b. TIA1 was labeled and its interaction with 2′,3′-cAMP was determined using MST.
TIA1 protein was purchased from Origene (Herford, Germany). Rbp47b was cloned as a C-terminal GFP fusion (to increase protein solubility) into the E. coli expression vector pDEST14 containing His6-tag at the N-terminal of the Gateway (Karlsruhe, Germany) cassette. Rosetta cells expressing His6-Rbp47b-GFP were grown at 28° C. overnight and next day were moved to Terrific Broth medium supplied with 1% sucrose and relevant antibiotics. Cultures at OD 0.4 were induced by addition of 0.1 mM IPTG and transferred to 16° C. for overnight incubation.
MST measurements were performed using a Monolith NT.115 instrument (NanoTemper, München, Germany). Capillaries were loaded into the instrument as sets of 13-16 point ligand titrations. Proteins (Rb47b and TIA1) were labeled in phosphate buffer (PBS) using Monolith™ protein labeling kit RED-NHS (amine reactive; MO-L001) according to the manufacturers instruction. Excitation was optimized by varying the LED power to yield emission intensities above 200 AU, corresponding to 10-50 nM labeled protein. Monolith power was set to 60%. Ligands [2′,3′-cAMP (Sigma A9376)] and [3′,5′-cAMP (Sigma A6885)] were dissolved in PBS. […]

Rbp47b self-assembly = target: T3, Rbp47b self-assembly (Arabidopsis thaliana, UniProt Q0WW84); assay: MST measurement of Rbp47b self-assembly; type: binding; details: 50 μM 2′,3′-cAMP; in its absence Kd=127.87 nM (128 nM); read-out: Kd of Rbp47b self-assembly in the presence of the ligand
T3 construct: GFP (C, cleaved yes); made in house; host or cells: E. coli Rosetta
T3 sequence (Q0WW84 1-435): T1 sequence (Q0WW84 1-435)
Description: In plants 2′,3′-cAMP levels increase rapidly under wounding stress (Van Damme (2014) (loc. cit.)). To test whether 2′,3′-cAMP level changes in other stress conditions we queried metabolomics date from stress time-course of (Caldana et al. (2011) High-density kinetic analysis of the metabolomic and transcriptomic response of Arabidopsis to eight environmental conditions. Plant J 67: 869-884). Shortly, mature Col-0 rosettes (prior bolting) grown in the control environment, were transferred into combinations of light (low light, high light, darkness) and temperature stress conditions (heat and cold) and sampled in multiple time-points until 24 h following stress onset. […] If the interaction takes place in the cytosol, where both, Rbp47b and 2′,3′-cAMP are present, one would expect that 2′,3′-cAMP might influence stress granules formation, meaning oligomerization of Rbp47b. Due to the lack of commercially available membrane permeable derivative of 2′,3′-cAMP molecule, we were unable to follow stress granules formation in vivo. However we tested this hypothesis directly by determining the oligomerization of Rbp47b in the presence and absence of saturating amounts of 2′,3′-cAMP by MST. […] 2′,3′-cAMP, besides being the degradation product of mRNA, could play a regulatory role by influencing the oligomerization of the Rbp47b protein, in turn influencing the formation of SGs. […]

TIA1 self-assembly = target: T4, TIA1 self-assembly (Homo sapiens, UniProt P31483); assay: MST measurement of TIA1 self-assembly; type: binding; details: 500 μM 2′,3′-cAMP; in its absence Kd=36.28 nM (36 nM); read-out: Kd of TIA1 self-assembly in the presence of the ligand
T4 construct: purchased Origene (Herford, Germany)
T4 sequence (P31483 1-386): T2 sequence (P31483 1-386)
Description: as §1
MST measurements were performed using a Monolith NT.115 instrument (NanoTemper, München, Germany). Capillaries were loaded into the instrument as sets of 13-16 point ligand titrations. Proteins (Rb47b and TIA1) were labeled in phosphate buffer (PBS) using Monolith™ protein labeling kit RED-NHS (amine reactive; MO-L001) according to the manufacturers instruction. Excitation was optimized by varying the LED power to yield emission intensities above 200 AU, corresponding to 10-50 nM labeled protein. Monolith power was set to 60%. Ligands [2′,3′-cAMP (Sigma A9376)] and [3′,5′-cAMP (Sigma A6885)] were dissolved in PBS. 0.5% Tween and premium coated capillaries were used to prevent sticking. Non-labeled TIA1 and Rbp47b were used as ligands in the self-assembly experiments. MO Affinity Analysis software was used to analyze (Kd calculation) and visualize the data. Presented data are from 2-3 technical replicates.

Nc1ncnc2c1ncn2[C@@H]1O[C@H](CO)[C@H]2OP(=O)(O)O[C@H]21 [2′,3′-cAMP]
Kd (Rbp47b): 1.02 µM and 1 µM | Kd (TIA1): 217 µM | Kd (Rbp47b self-assembly): 0.0089 µM and 0.009 µM | Kd (TIA1 self-assembly): 0.0206 µM and 0.02 µM
